What was measured:
[1] = test system: mRNA expressed from the genes (A) to (D) in rat liver; experiment: Behavior of genes (mRNA expression level, oligo-DNA microarray) in rat liver after 28-day oral administration; type: in vivo; conditions: mRNA vs vehicle control group; for Behavior of gene caused by administration of chemical substance, Gene No. 4846 / Behavior of gene caused by administration of chemical substance, Gene No. 2026 / Behavior of gene caused by administration of chemical substance, Gene No. 4218 / Behavior of gene caused by administration of chemical substance, Gene No. 6182 / Behavior of gene caused by administration of chemical substance, Gene No. 5600: gene group (A); for Behavior of gene caused by administration of chemical substance, Gene No. 4846: Unigene No. Rn.144554; for Behavior of gene caused by administration of chemical substance, Gene No. 2026 / Behavior of gene caused by administration of chemical substance, Gene No. 4218: Unigene No. Rn.167075; for Behavior of gene caused by administration of chemical substance, Gene No. 6182: Unigene No. Rn.5834; for Behavior of gene caused by administration of chemical substance, Gene No. 5600: Unigene No. Rn.9836; for Behavior of gene caused by administration of chemical substance, Gene No. 1494 / Behavior of gene caused by administration of chemical substance, Gene No. 2045 / Behavior of gene caused by administration of chemical substance, Gene No. 2203: gene group (B); for Behavior of gene caused by administration of chemical substance, Gene No. 1494: Unigene No. Rn.1430; for Behavior of gene caused by administration of chemical substance, Gene No. 2045: Unigene No. Rn.19329; for Behavior of gene caused by administration of chemical substance, Gene No. 2203: Unigene No. Rn.21240; for Behavior of gene caused by administration of chemical substance, Gene No. 533 / Behavior of gene caused by administration of chemical substance, Gene No. 725 / Behavior of gene caused by administration of chemical substance, Gene No. 1163 / Behavior of gene caused by administration of chemical substance, Gene No. 4973 / Behavior of gene caused by administration of chemical substance, Gene No. 4095 / Behavior of gene caused by administration of chemical substance, Gene No. 1334 / Behavior of gene caused by administration of chemical substance, Gene No. 6620 / Behavior of gene caused by administration of chemical substance, Gene No. 6303 / Behavior of gene caused by administration of chemical substance, Gene No. 5878 / Behavior of gene caused by administration of chemical substance, Gene No. 1131 / Behavior of gene caused by administration of chemical substance, Gene No. 1562 / Behavior of gene caused by administration of chemical substance, Gene No. 1741 / Behavior of gene caused by administration of chemical substance, Gene No. 893 / Behavior of gene caused by administration of chemical substance, Gene No. 6026 / Behavior of gene caused by administration of chemical substance, Gene No. 154 / Behavior of gene caused by administration of chemical substance, Gene No. 1993 / Behavior of gene caused by administration of chemical substance, Gene No. 813 / Behavior of gene caused by administration of chemical substance, Gene No. 2494 / Behavior of gene caused by administration of chemical substance, Gene No. 2546 / Behavior of gene caused by administration of chemical substance, Gene No. 3776 / Behavior of gene caused by administration of chemical substance, Gene No. 3929 / Behavior of gene caused by administration of chemical substance, Gene No. 1119 / Behavior of gene caused by administration of chemical substance, Gene No. 6742 / Behavior of gene caused by administration of chemical substance, Gene No. 5634: gene group (C); for Behavior of gene caused by administration of chemical substance, Gene No. 533: Unigene No. Rn.106184; for Behavior of gene caused by administration of chemical substance, Gene No. 725: Unigene No. Rn.108075; for Behavior of gene caused by administration of chemical substance, Gene No. 1163: Unigene No. Rn.11766; for Behavior of gene caused by administration of chemical substance, Gene No. 4973: Unigene No. Rn.118529; for Behavior of gene caused by administration of chemical substance, Gene No. 4095: Unigene No. Rn.119024; for Behavior of gene caused by administration of chemical substance, Gene No. 1334 / Behavior of gene caused by administration of chemical substance, Gene No. 6620: Unigene No. Rn.120914; for Behavior of gene caused by administration of chemical substance, Gene No. 6303: Unigene No. Rn.123063; for Behavior of gene caused by administration of chemical substance, Gene No. 5878: Unigene No. Rn.143213; for Behavior of gene caused by administration of chemical substance, Gene No. 1131: Unigene No. Rn.144946; for Behavior of gene caused by administration of chemical substance, Gene No. 1562: Unigene No. Rn.14744; for Behavior of gene caused by administration of chemical substance, Gene No. 1741: Unigene No. Rn.1647; for Behavior of gene caused by administration of chemical substance, Gene No. 893: Unigene No. Rn.164817; for Behavior of gene caused by administration of chemical substance, Gene No. 6026: Unigene No. Rn.167685; for Behavior of gene caused by administration of chemical substance, Gene No. 154: Unigene No. Rn.185941; for Behavior of gene caused by administration of chemical substance, Gene No. 1993: Unigene No. Rn.18728; for Behavior of gene caused by administration of chemical substance, Gene No. 813: Unigene No. Rn.201760; for Behavior of gene caused by administration of chemical substance, Gene No. 2494: Unigene No. Rn.23969; for Behavior of gene caused by administration of chemical substance, Gene No. 2546: Unigene No. Rn.24561; for Behavior of gene caused by administration of chemical substance, Gene No. 3776: Unigene No. Rn.43232; for Behavior of gene caused by administration of chemical substance, Gene No. 3929: Unigene No. Rn.4620; for Behavior of gene caused by administration of chemical substance, Gene No. 1119: Unigene No. Rn.9757; for Behavior of gene caused by administration of chemical substance, Gene No. 6742: Unigene No. Rn.9779; for Behavior of gene caused by administration of chemical substance, Gene No. 5634: Unigene No. Rn.9862; for Behavior of gene caused by administration of chemical substance, Gene No. 5726: gene group (D), Unigene No. Rn.9939
In short: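 Rat liver RNA after 28 days of daily gavage dosing (male F344, 5 weeks old, four per group). A change reaching 1.5-fold, or 1/1.5, against solvent control scores as significant; opposite direction versus another carcinogen scores as not significant.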

liver = conditions: in vivo; cited from earlier work
rodent = conditions: in vivo; cited from earlier work

SMILES	Behavior of gene caused by administration of chemical substance, Gene No. 4846 [1]	Behavior of gene caused by administration of chemical substance, Gene No. 2026 [1]	Behavior of gene caused by administration of chemical substance, Gene No. 4218 [1]	Behavior of gene caused by administration of chemical substance, Gene No. 6182 [1]	Behavior of gene caused by administration of chemical substance, Gene No. 5600 [1]	Behavior of gene caused by administration of chemical substance, Gene No. 1494 [1]	Behavior of gene caused by administration of chemical substance, Gene No. 2045 [1]	Behavior of gene caused by administration of chemical substance, Gene No. 2203 [1]	Behavior of gene caused by administration of chemical substance, Gene No. 533 [1]	Behavior of gene caused by administration of chemical substance, Gene No. 725 [1]	Behavior of gene caused by administration of chemical substance, Gene No. 1163 [1]	Behavior of gene caused by administration of chemical substance, Gene No. 4973 [1]	Behavior of gene caused by administration of chemical substance, Gene No. 4095 [1]	Behavior of gene caused by administration of chemical substance, Gene No. 1334 [1]	Behavior of gene caused by administration of chemical substance, Gene No. 6620 [1]	Behavior of gene caused by administration of chemical substance, Gene No. 6303 [1]	Behavior of gene caused by administration of chemical substance, Gene No. 5878 [1]	Behavior of gene caused by administration of chemical substance, Gene No. 1131 [1]	Behavior of gene caused by administration of chemical substance, Gene No. 1562 [1]	Behavior of gene caused by administration of chemical substance, Gene No. 1741 [1]	other results
CN(C)c1ccc(N=Nc2ccccc2)cc1 [TS077, 4-Dimethylaminoazobenzene]	−	−	−	+	−	+	+	−	−	−	−	−	−	−	−	+	−	−	−	−	Behavior of gene caused by administration of chemical substance, Gene No. 893 [1]: −; Behavior of gene caused by administration of chemical substance, Gene No. 6026 [1]: +; Behavior of gene caused by administration of chemical substance, Gene No. 154 [1]: −; Behavior of gene caused by administration of chemical substance, Gene No. 1993 [1]: −; Behavior of gene caused by administration of chemical substance, Gene No. 813 [1]: −; Behavior of gene caused by administration of chemical substance, Gene No. 2494 [1]: −; Behavior of gene caused by administration of chemical substance, Gene No. 2546 [1]: −; Behavior of gene caused by administration of chemical substance, Gene No. 3776 [1]: −; Behavior of gene caused by administration of chemical substance, Gene No. 3929 [1]: −; Behavior of gene caused by administration of chemical substance, Gene No. 1119 [1]: −; Behavior of gene caused by administration of chemical substance, Gene No. 6742 [1]: −; Behavior of gene caused by administration of chemical substance, Gene No. 5634 [1]: −; Behavior of gene caused by administration of chemical substance, Gene No. 5726 [1]: +; Liver carcinogenicity (liver): Cr+; Carcinogenicity (rodent): C+
O=C(O)C1C(C(=O)O)C2(Cl)C(Cl)=C(Cl)C1(Cl)C2(Cl)Cl (stereo not shown) [TS078, Chlorendic acid]	−	+	−	−	−	+	+	+	−	−	+	+	−	−	−	−	−	−	−	−	Behavior of gene caused by administration of chemical substance, Gene No. 893 [1]: −; Behavior of gene caused by administration of chemical substance, Gene No. 6026 [1]: −; Behavior of gene caused by administration of chemical substance, Gene No. 154 [1]: −; Behavior of gene caused by administration of chemical substance, Gene No. 1993 [1]: −; Behavior of gene caused by administration of chemical substance, Gene No. 813 [1]: −; Behavior of gene caused by administration of chemical substance, Gene No. 2494 [1]: −; Behavior of gene caused by administration of chemical substance, Gene No. 2546 [1]: −; Behavior of gene caused by administration of chemical substance, Gene No. 3776 [1]: −; Behavior of gene caused by administration of chemical substance, Gene No. 3929 [1]: −; Behavior of gene caused by administration of chemical substance, Gene No. 1119 [1]: −; Behavior of gene caused by administration of chemical substance, Gene No. 6742 [1]: −; Behavior of gene caused by administration of chemical substance, Gene No. 5634 [1]: +; Behavior of gene caused by administration of chemical substance, Gene No. 5726 [1]: −; Liver carcinogenicity (liver): Cr+; Carcinogenicity (rodent): C+

From patent US20110039721A1, “METHOD FOR PREDICTION ABOUT CARCINOGENICITY OF SUBSTANCE IN RODENT” (Chemicals Evaluation and Research Institute, priority 2007, published 2011)
